The values that follow come from patent US5498755A, “Disubstituted aryl and heteroaryl imines having retinoid-like biological activity” (priority 1994, dated 1996).

The subject of test [1] is ornithine decarboxylase (ODC). The test is described as follows: ODC assay: inhibition of TPA induction of ornithine decarboxylase. Particulars: concentration of the test compound which causes 80% inhibition in the ODC assay; TPA-induced ODC. In kind it is biochemical. From the text: The retinoic acid-like activity of these compounds is confirmed through the classic measure of retinoic acid activity involving the effects of retinoic acid on ornithine decarboxylase. The original work on the correlation between retinoic acid and decrease in cell proliferation was done by Verma & Boutwell, Cancer Research, 1977, 37, 2196-2201. That reference discloses that ornithine decarboxylase (ODC) activity increased precedent to polyamine biosynthesis. It has been established elsewhere that increases in polyamine synthesis can be correlated or associated with cellular proliferation. Thus, if ODC activity could be inhibited, cell hyperproliferation could be modulated. Although all cases for ODC activity increases are unknown, it is known that 12-O-tetradecanoylphorbol-13-acetate (TPA) induces ODC activity. […] Activity of exemplary compounds of the present invention in the above-described ODC assay is disclosed in Table 2 which provides the IC80 concentration for the respective exemplary compound. ("IC80 " is that concentration of the test compound which causes 80% inhibition in the ODC assay)

The subject of test [2] is ornithine decarboxylase (ODC). Particulars: literature statement in words; 12-O-tetradecanoylphorbol-13-acetate (TPA) as inducer; cited from earlier work.

Where only a bound is given, the exact number is not on record here.

In test [1], `COC(=O)c1ccc(C=Nc2ccc3c(c2)C(C)(C)CCC3(C)C)cc1` [Compound 1] had an IC80 conc of 14.5 nmols.

Regarding `CCOC(=O)c1ccc(C=Nc2ccc3c(c2)C(C)(C)CCC3(C)C)cc1` [Compound 4, N-(5,6,7,8-Tetrahydro-5,5,8,8-tetramethyl)-2-naphthalenyl 4-ethoxycarbonyl benzaldimine], the IC80 conc in test [1] was found to be 2.5 nmols.

For the compound `CCOC(=O)c1ccc(C(C)=Nc2ccc3c(c2)C(C)(C)CCC3(C)C)cc1` [Compound 5, N-(5,6,7,8-Tetrahydro-5,5,8,8-tetramethyl)-2-naphthalenyl 4-ethoxycarbonyl acetophenone imine], the IC80 conc in test [1] worked out at 5.5 nmols.

Compound `CCOC(=O)c1ccc(C=Nc2cc3c(cc2C)C(C)(C)CCC3(C)C)cc1` [Compound 6, N-(5,6,7,8-Tetrahydro-3,5,5,8,8-pentamethyl)-2-naphthalenyl 4-ethoxycarbonyl benzaldimine] yielded an IC80 conc in test [1] of 293 nmols.

In turn, `CCOC(=O)c1ccc(C=Nc2ccc3c(c2)C(C)(C)CCC3(C)C)nc1` [Compound 7, Ethyl 6-(N-5,6,7,8-tetrahydro-5,5,8,8-tetramethyl-2-naphthalenyl) 3-ethoxycarbonyl-pyridine-6-carboxaldehyde imine] came in with an IC80 conc in test [1] of more than 30 nmols.

Compound `CCOC(=O)c1ccc(N=Cc2ccc3c(c2)C(C)(C)CCC3(C)C)cc1` [Compound 9, N-(4'-Ethoxycarbonyl)phenyl 5,6,7,8-tetrahydro-5,5,8,8-tetramethyl,naphthalene-2-carboxaldehyde imine] came in with an IC80 conc in test [1] of 9.6 nmols.

`CCOC(=O)c1ccc(N=Cc2ccc3c(c2)C(C)(C)CC(C)(C)O3)cc1` [Compound 10, N-(4'-Ethoxycarbonyl) phenyl 2,2,4,4-tetramethyl-chroman-6-carboxaldehyde imine] returned an IC80 conc in test [1] of 44.0 nmols.

On to `CCOC(=O)c1ccc(N=Cc2cc3c(cc2C)C(C)(C)CCC3(C)C)cc1` [Compound 11, N-(4'-Ethoxycarbonyl) phenyl-2-(5,6,7,8-tetrahydro-3,5,5,8,8-pentamethyl) naphthalene-2-carboxaldehyde imine], for which the IC80 conc in test [1] is reported as 3.5 nmols.

On to `CC1=C(/C=C/C(C)=C/C=C/C(C)=C/C(=O)O)C(C)(C)CCC1` [Retinoic acid], for which the “inhibition of TPA induction of ODC activity” value in test [2] was “inhibits this induction of ODC activity by TPA”.
